Assay results published in patent publication US10011628B2, “Multivalent sialic acid derivatives” (priority 2013, dated 2018).
Where two headings read alike, the source gives them in different places.

Assays:
[1] = test system: HAdV-37 virions (attachment to HCE cells); test: Cell-binding assay: attachment of 35S-labeled HAdV-37 virions to HCE cells; type: cell-based; details: read-out: IC50, preventing attachment of HAdV-37 virions to HCE cells
Procedure: In order to investigate the efficiency of the newly synthesized compounds (ME0385, ME0386, ME0407, ME0408, ME0461, and ME0462) to prevent the attachment of HAdV-37 virions to HCE cells, cell-binding assays based on ^35S-labeled virions were performed. Based on previous studies ME0322, sialic acid and GD1a glycan were used as reference compounds (Nilsson et al N. Nat. Med. 2011, 17, 105 and Spjut et al Angew. Chem. Int. Ed. 2011, 50, 6519). The assays were carried out (see below for further details) essentially as previously described (Arnberg et al J. Virol. 2000, 74, 42 and Arnberg et al J. Virol. 2000, 74, 7691).
In brief, ^35S-labeled HAdV-37 virions were pre-incubated with or without the trivalent sialic acid derivatives, GD1a glycan and sialic acid at various concentrations. The mixtures were incubated with HCE cells and unbound virions were then washed away. Finally, the cell-associated radioactivity was counted by using a scintillation counter.
S-labeled HAdV-37 virions (5×10^8/well) were pre-incubated in binding buffer (50 μL; BB: Dulbecco's modified eagle's medium containing 1% BSA (Roche AB, Stockholm, Sweden) and HEPES (20 mM, EuroClone, Milan, Italy), pH 7.5) with or without the trivalent sialic acid derivatives, GD1a glycan or sialic acid at various concentrations (cf. FIG. 1a) in a 96-well microplate at +4° C. for 1 h. These mixtures were then added to HCE cells prepelleted (1×10^5/well) in a 96-well microplate. After re-suspension, the mixtures were incubated at +4° C. for 1 h. Finally, unbound virions were washed away with BB and the cell-associated radioactivity was counted by using a Wallac 1409 scintillation counter.

[2] = test system: HAdV-37 virions (infection of HCE cells); test: Infection assay: infection of HCE cells by HAdV-37 virions (immunofluorescence); type: cell-based; details: for prevention of infection of HCE cells by HAdV-37 virions compared with ME0322: in words; for IC50: Human adenovirus sp., HCE, 44 h of infection, immunofluorescence, read-out: IC50, preventing infection of HCE cells by HAdV-37 virions
Procedure: In order to confirm the results from the cell-binding assays and to further evaluate our set of compounds, infection experiments were performed (FIGS. 1b, 3a and 3b). The assays were carried out (see below for further details) essentially as previously described ((Arnberg et al. J. Virol. 2000, 74, 42 and Arnberg et al. J. Virol. 2000, 74, 7691)).
In brief, unlabeled virions were pre-incubated with or without the trivalent sialic acid derivatives, GD1a glycan or sialic acid at various concentrations. These mixtures were then added to HCE cells and incubated at +4° C. Unbound virions were washed away, the resulting mixtures were incubated at +37° C. and a synchronized infection—all virions enter the cells simultaneously—was then obtained. After 44 h of infection, the cells were rinsed, fixed, incubated with rabbit polyclonal anti-HAdV-37 antibodies prior to being washed and stained. Finally, the cells were washed and examined by immunofluorescence microscopy.
7×10^7 non-labeled virions/well in 48-well plates were pre-incubated in serum free growth media (2004), with or without the trivalent sialic acid derivatives, GD1a glycan or sialic acid at various concentrations (cf. FIG. 2B) at +4° C. After 1 h, the mixtures were transferred to new 48-well plates containing 1×10^5 adherent HCE cells/well and incubated at +4° C. After 1 h, unbound virions were washed away with serum free growth media and the resulting mixtures were incubated with growth media containing 1% fetal bovine serum (FBS) at +37° C. After 44 h of infection, the cells were rinsed in PBS, fixed with cold (−20° C.) 99% methanol for 10 min and incubated with rabbit polyclonal anti-HAdV-37 antibodies diluted 1:200 in PBS (pH 7.4) at room temperature. After 1 h, the cells were washed in PBS and stained with FITC-labeled swine anti-rabbit IgG antibodies (Dako-cytomation, Glostrup, Denmark) diluted 1:100 in PBS for 1 h at room temperature. Finally, the cells were washed in PBS and examined in an immunofluorescence microscope (Axiovert 25, Carl Zeiss, Germany; 10× magnification).

HAdV-37 fiber knob = HAdV-37 fiber knob (Human adenovirus D37, UniProt Q64823); test: Surface plasmon resonance (SPR), immobilized HAdV-37 fiber knobs; type: binding, human adenovirus HAdV-37; details: for binding mode with HAdV-37 fiber knob: SPR
Procedure: Finally, ME0385, ME0386 and ME0322 were investigated in surface plasmon resonance (SPR) experiments and their respective binding affinities (Kds) for immobilized HAdV-37 fiber knobs were determined (see below for further details). […] It is also worth noting the influence of the HAdV-37 fiber knob construct on the Kd values.
The kinetic measurements were performed using a surface plasmon resonance BIAcore T100 instrument. HAdV-37 knob proteins were covalently coupled to a CMS sensorchip using the amine coupling kit (GE Healthcare), to a concentration of 14-15 ng/mm^2 (˜15000RU). Binding of the trivalent sialic acid conjugates ME0322, ME0385 and ME0386 to the immobilized knob was performed in 10 mM HEPES, 0.15 M NaCl and 0.05% P20 pH 7.4 (1×HBS-EP+, GE Healthcare). The concentrations of trivalent sialic acid used were 400, 200, 100, 50 (twice), 25, 12.5 (twice), 6.25, 3.125, 1.56 and 0.78 μM. The binding affinities (Kds) were calculated using Biacore T100 evaluation software.

[3] = test system: HAdV-37 virions (attachment to HCE cells); details: reported in the art (background), cited from earlier work
[4] = test system: HAdV-37 virions (infection of HCE cells); details: cited from earlier work
[5] = 35S-labeled virions pre-incubated with compound, +4° C., HCE cells

Molecule	IC50 ([1]; Human adenovirus sp., HCE) [µM]	IC50 [1, 5] [µM]	IC50 [2] [µM]	Kd (HAdV-37 fiber knob) [µM]	binding mode with HAdV-37 fiber knob (HAdV-37 fiber knob)	other results
CC(=O)N[C@H]1[C@H]([C@H](O)[C@H](O)CO)OC(O)(C(=O)O)C[C@@H]1O (some centres unmarked) [sialic acid]	1200	–	–	–	–	–
Tris ((4-(2-O-(5-N-acetamido-3,5-dideoxy-D-glycero-α-D-galacto-2-nonulopyranosylonic acid))-2-oxoethyl-1H-1,2,3-triazol-1-yl)ethyl)amine [ME0461]	–	0.376	–	–	–	prevention of infection of HCE cells by HAdV-37 virions compared with ME0322 [2]: more efficiently than ME0322
CCC(=O)N[C@H]1[C@H]([C@H](O)[C@H](O)CO)O[C@@](OCCCn2cc(CN(Cc3cn(CCCO[C@]4(C(=O)O)C[C@H](O)[C@@H](NC(=O)CC)[C@H]([C@H](O)[C@H](O)CO)O4)nn3)Cc3cn(CCCO[C@]4(C(=O)O)C[C@H](O)[C@@H](NC(=O)CC)[C@H]([C@H](O)[C@H](O)CO)O4)nn3)nn2)(C(=O)O)C[C@@H]1O [ME0407]	–	23.4	–	–	–	–
Tris ((1-(2-O-(5-N-propanoylamido-3,5-dideoxy-D-glycero-α-D-galacto-2-nonylopyranosylonic acid))-2-oxoethyl-1H-1,2,3-triazol-4-yl)methyl)amine [ME0408]	–	4.5	–	–	–	–
CC(=O)N[C@@H]1C(O)C[C@](OCCCn2cc(CN(Cc3cn(CCCO[C@@]4(C(=O)O)CC(O)[C@H](NC(C)=O)C(C(O)C(O)CO)O4)nn3)Cc3cn(CCCO[C@]4(C(=O)O)CC(O)[C@@H](NC(C)=O)C(C(O)C(O)CO)O4)nn3)nn2)(C(=O)O)OC1C(O)C(O)CO (stereo partly drawn) [ME0386, Tris ((1-(2-O-(5-N-acetamido-3,5-dideoxy-D-glycero-α-D-galacto-2-nonylopyranosylonic acid))-3-oxopropyl-1H-1,2,3-triazol-4-yl)methyl)amine]	0.04	–	0.118	69	one-to-one binding mode	–
CC(=O)NC1C(O)CC(OCCn2cc(CN(Cc3cn(CCOC4(C(=O)O)CC(O)C(NC(C)=O)C(C(O)C(O)CO)O4)nn3)Cc3cn(CCOC4(C(=O)O)CC(O)C(NC(C)=O)C(C(O)C(O)CO)O4)nn3)nn2)(C(=O)O)OC1C(O)C(O)CO [ME0385, Tris ((1-(2-O-(5-N-acetamido-3,5-dideoxy-D-glycero-α-D-galacto-2-nonylopyranosylonic acid))-2-oxoethyl-1H-1,2,3-triazol-4-yl)methyl)amine]	0.107	–	0.166	76	one-to-one binding mode	–
CC(=O)N[C@@H]1C(O)C[C@](OCc2cn(CCN(CCn3cc(CO[C@]4(C(=O)O)CC(O)[C@@H](NC(C)=O)C(C(O)C(O)CO)O4)nn3)CCn3cc(CO[C@]4(C(=O)O)CC(O)[C@@H](NC(C)=O)C(CO)(C(O)CO)O4)nn3)nn2)(C(=O)O)OC1C(O)C(O)CO (stereo partly drawn) [ME0462, Tris ((4-(2-O-(5-N-acetamido-3,5-dideoxy-D-glycero-α-D-galacto-2-nonulopyranosylonic acid))-2-oxomethyl-1H-1,2,3-triazol-1-yl)ethyl)amine]	0.0014	–	0.0021	9.5	–	prevention of infection of HCE cells by HAdV-37 virions compared with ME0322 [2]: more efficiently than ME0322
CC(=O)NC1C(O)CC(OCCCCCNc2c(NCCN(CCNc3c(NCCCCCOC4(C(=O)O)CC(O)C(NC(C)=O)C(C(O)C(O)CO)O4)c(=O)c3=O)CCNc3c(NCCCCCOC4(C(=O)O)CC(O)C(NC(C)=O)C(C(O)C(O)CO)O4)c(=O)c3=O)c(=O)c2=O)(C(=O)O)OC1C(O)C(O)CO (centres unmarked) [ME0322]	–	–	–	–	one-to-one binding mode	Kd (HAdV-37 fiber knob; read-out: binding affinity (Kd) for immobilized HAdV-37 fiber knobs, BIAcore T100, HBS-EP+ pH 7.4): 126 µM; potency compared with natural sialic acid monosaccharide ([3]; assay not specified): four orders of magnitude more potent than the natural sialic acid monosaccharide; preventing binding of the virus, compared with 17-valent sialic acid-HSA conjugate [3]: as effective as 17-valent sialic acid-HSA conjugate; IC50 ([4]; infection of HCE cells by HAdV-37, earlier estimate, read-out: half maximal inhibitory concentration, previously estimated): 0.38 µM; inhibiting infection of HCE cells by HAdV-37, compared with HSA-conjugate ([4]; reported in the art (background)): far more potent than the HSA-conjugate
